Assay results from paper PMC5372988, “Bulgecin A: The Key to a Broad-Spectrum Inhibitor That Targets Lytic Transglycosylases” (Antibiotics, 2017).

Target: T1, LtgA (Neisseria meningitidis, UniProt Q9JXP1)
T1 construct: gene NMB1949; GST fusion from pGEX-4T1, GST cut by thrombin; E. coli BL21(DE3) Gold; 577 residues in model
T1 sequence (Q9JXP1 26-616): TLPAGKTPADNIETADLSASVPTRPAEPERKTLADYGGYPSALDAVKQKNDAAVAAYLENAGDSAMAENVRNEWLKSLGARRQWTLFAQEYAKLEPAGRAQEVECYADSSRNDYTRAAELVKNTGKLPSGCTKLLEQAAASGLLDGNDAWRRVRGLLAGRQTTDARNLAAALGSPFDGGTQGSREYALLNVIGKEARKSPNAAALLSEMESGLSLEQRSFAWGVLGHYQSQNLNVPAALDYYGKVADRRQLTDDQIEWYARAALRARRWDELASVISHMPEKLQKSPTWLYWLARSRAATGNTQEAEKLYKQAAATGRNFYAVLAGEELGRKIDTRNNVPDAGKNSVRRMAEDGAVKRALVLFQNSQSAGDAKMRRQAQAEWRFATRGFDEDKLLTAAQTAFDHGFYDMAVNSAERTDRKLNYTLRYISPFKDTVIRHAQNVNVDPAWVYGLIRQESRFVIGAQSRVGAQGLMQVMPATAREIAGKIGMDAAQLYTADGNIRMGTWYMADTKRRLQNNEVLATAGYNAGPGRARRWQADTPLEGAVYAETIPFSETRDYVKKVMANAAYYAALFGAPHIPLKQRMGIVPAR
Assay: RP-HPLC of muropeptides released from N. meningitidis peptidoglycan
Format: biochemical

CC(=O)N[C@H]1[C@H](O[C@H]2C[C@@H](C(=O)NCCS(=O)(=O)O)N[C@@H]2CO)O[C@H](CO)[C@@H](OS(=O)(=O)O)[C@@H]1O [bulgecin A]
inhibition at 90 µM: 66 ± 9.4%
